Measured values taken from patent US6596545B1, “Microdevices for screening biomolecules” (priority 1998, dated 2003).

Legend:
Type in all cases: biochemical
[1] = molecular target: HIV protease A71V variant (Human immunodeficiency virus type 1 group M subtype B, UniProt P04585, A559V/P588I); conditions: substrate Dns-SQNYPIVW, pH 5.5
Method: (§1) HIV protease variants, in the form of HIV-GST-K6, and GST-K6 are immobilized to the aminoreactive monolayer surface of the microchannel device (see Example 4, above). HIV-GST-K6 and GST-K6 are diluted to concentrations of 1 μg/ml in 25 mM HEPES buffer (pH 7.5) containing 150 mM NaCl. First, 50 μl of protein-free buffer is transferred through the channels to hydrate the monolayer surface. After 5 min of incubation, 10 μl of the corresponding protein solutions are flushed through the channels to guarantee total replacement with protein-containing solution. Immobilization is finished after 30 min at room temperature. The channels are rinsed with 50 μl immobilization buffer and subjected to analysis. […] Ultrapure water with a resistance of 18 MΩcm is generally used for all aqueous buffers (purified by passage through a Barnstead Nanopure® system).
(§2) HIV protease requires at least a heptapeptide substrate (Moore et al., Biochem. Biophys. Res. Commun., 1989, 159:420). To analyze the activity of the different HIV variants, a continuous assay based on intra-molecular fluorescence resonance energy transfer (FRET) is used. […] Excitation of Trp is at […], and emission of Dns is at 575 nm. Cleavage of the peptide at the Tyr-Pro bond reduces the Dns emission and increases Trp emission at 360 nm. The modified heptapeptide; Dns-[…] is prepared as described (Geoghegan et al.) and analyzed by amino acid analysis, nuclear magnetic resonance and mass spectrometry. The purity is checked by HPLC analysis using a Vydac C-4 column and an acetonitrile gradient in 0.1% TFA. In order to test the activity of all the HIV variants described above, each microchannel with an immobilized HIV variant (see Example 6) is filled with 20 μM of Dns-[…] in 50 mM sodium acetate, pH 5.5, 13% glycerol, 10 mM DTT. Addition of the substrate to the immobilized proteins leads to time-dependent intensity changes in the fluorescence emission spectrum. […] To control for changes in background fluorescence, GST-K6 fusion protein is measured in parallel.
(§3) Competition assays can be carried out to test the specificity of the proteolysis by the HIV variants.

[2] = molecular target: L10R HIV protease variant (Human immunodeficiency virus type 1 group M subtype B, UniProt P04585, L498R); conditions: substrate Dns-SQNYPIVW, pH 5.5
Method: as §1, §2, §3

[3] = molecular target: HIV protease M461 variant (Human immunodeficiency virus type 1 group M subtype B, UniProt P04585, M534I); conditions: substrate Dns-SQNYPIVW, pH 5.5
Method: as §1, §2, §3

[4] = molecular target: HIV protease V82F variant (Human immunodeficiency virus type 1 group M subtype B, UniProt P04585, V570F); conditions: substrate Dns-SQNYPIVW, pH 5.5
Method: as §1, §2, §3

[5] = molecular target: HIV protease 184V variant (Human immunodeficiency virus type 1 group M subtype B, UniProt P04585, I572V/P588I); conditions: substrate Dns-SQNYPIVW, pH 5.5
Method: as §1, §2, §3

[6] = molecular target: HIV protease L63P variant (Human immunodeficiency virus type 1 group M subtype B, UniProt P04585, L551P); conditions: substrate Dns-SQNYPIVW, pH 5.5
Method: as §1, §2, §3

[7] = test system: HIV variants (HIV protease variants, HIV-GST-K6); assay: FRET protease activity assay in microchannels, immobilized HIV protease variants; conditions: all immobilized variants other than G48V or L90M; substrate Dns-SQNYPIVW 20 μM, pH 5.5
Method: HIV protease variants, in the form of HIV-GST-K6, and GST-K6 are immobilized to the aminoreactive monolayer surface of the microchannel device (see Example 4, above). HIV-GST-K6 and GST-K6 are diluted to concentrations of 1 μg/ml in 25 mM HEPES buffer (pH 7.5) containing 150 mM NaCl. First, 50 μl of protein-free buffer is transferred through the channels to hydrate the monolayer surface. After 5 min of incubation, 10 μl of the corresponding protein solutions are flushed through the channels to guarantee total replacement with protein-containing solution. Immobilization is finished after 30 min at room temperature. The channels are rinsed with 50 μl immobilization buffer and subjected to analysis. […]
HIV protease requires at least a heptapeptide substrate (Moore et al., Biochem. Biophys. Res. Commun., 1989, 159:420). To analyze the activity of the different HIV variants, a continuous assay based on intra-molecular fluorescence resonance energy transfer (FRET) is used. […] The modified heptapeptide; Dns-SQNYPIVW is prepared as described (Geoghegan et al.) and analyzed by amino acid analysis, nuclear magnetic resonance and mass spectrometry. […] Addition of the substrate to the immobilized proteins leads to time-dependent intensity changes in the fluorescence emission spectrum. […] To control for changes in background fluorescence, GST-K6 fusion protein is measured in parallel. […]

Row | Compound | block of protease activity [1] | decrease of protease activity [2] | block of protease activity [3] | block of protease activity [4] | block of protease activity [5] | block of protease activity [6] | inhibition of HIV variants [7]
1 | CC(C)(C)NC(=O)[C@@H]1CN(Cc2cccnc2)CCN1C[C@@H](O)C[C@@H](Cc1ccccc1)C(=O)N[C@H]1c2ccccc2C[C@H]1O [Indinavir] | the A71V variant is not affected | not able to decrease the activity | – | – | – | – | –
2 | CC(C)c1nc(CN(C)C(=O)N[C@H](C(=O)N[C@@H](Cc2ccccc2)C[C@H](O)[C@H](Cc2ccccc2)NC(=O)OCc2cncs2)C(C)C)cs1 [Ritonavir] | unable to block the activity | – | unable to block the activity | unable to block the activity | unable to block the activity | unable to block the activity | –
3 | CC(C)(C)NC(=O)[C@@H]1C[C@@H]2CCCC[C@@H]2CN1C[C@@H](O)[C@H](Cc1ccccc1)NC(=O)[C@H](CC(N)=O)NC(=O)c1ccc2ccccc2n1 [Sequinavir] | – | – | – | – | – | – | will inhibit all the HIV variants except those containing either the G48V or the L90M mutation
